In patent US6623735B1, “Vaccine containing a thiol protease” (priority 1992, dated 2003):
Starred links: 1 amine or outer side, 2 acyl side, 3 side chain; linkers in the order of their positions; H or OH if unused. Residues, ends and D or L forms follow the SMILES beside them. *: point of attachment. AMC = Cc1cc(=O)oc2cc(N*)ccc12; Suc = O=C(CCC(=O)[*:2])[*:1]; Tos = Cc1ccc(S(=O)(=O)*)cc1; Cbz = O=C(OCc1ccccc1)*; Boc = CC(C)(C)OC(=O)*; Bz = O=C(c1ccccc1)*

How the values were obtained:
F. hepatica cathepsin L1 = assay: Enzyme kinetic studies, cathepsin L1; assay type: biochemical, Fasciola hepatica; settings: 0.1M glycine pH 7.0, 37° C.
Procedure: (§1) The kinetic constants of F. hepatica cathepsins L1 and L2 enzymes were determined for 11 different substrates: Z-Phe-Arg-AMC, Bz-Phe-Val-Arg-AMC, Suc-Leu-Leu-Val-Tyr-AMC, H-Leu-Val-Tyr-AMC, Tos-Gly-Pro-Lys-AMC, Tos-Gly-Pro-Arg-AMC, Boc-Val-Pro-Arg-AMC, Z-Arg-Arg-AMC, Z-Arg-AMC, Suc-Ala-Phe-Lys-AMC and Boc-Val-Leu-Lys-AMC. One mg of fluorogenic substrate was dissolved in 100 μl of dimethyl formamide. This stock solution was diluted in 0.1M glycine pH 7.0 to achieve the desired concentration of substrate. Each substrate concentration was in triplicate and the final assay volume was 1.0 ml. Included in the 1 ml aliquot was 20 μl of enzyme and 50 μl of 10 mM dithiothreitol. The samples were incubated at 37° C. for 30 min before stopping the reaction with the addition of 200 μl of 1.7 M acetic acid. The samples were assayed for released 7-amino-methyl-coumarin as above. The kinetic constants Vmax and Km were obtained by non-linear regression according to the method of Barrett et al (Biochem J. 201, p.189-198) except that 20 μl of cathepsin L2 was incubated with 20 μl of 1.0 μM-0.1 μM E-64 in a final volume of 80 μl 0.1M glycine pH 7.0 for 30 mins at 37° C. Twenty μl of 1/10 cathepsin L1 was incubated with 20 μl of 5 μM-0.5 μM E-64 in a final volume of 80 μl 0.1M glycine pH 7.0 for 30 min. at 37° C. All of the incubated sample was assayed for the fluorogenic substrate Z-Phe-Arg-AMC as above.

F. hepatica cathepsin L2 = assay: Enzyme kinetic studies, cathepsin L2; assay type: biochemical, Fasciola hepatica; settings: 0.1M glycine pH 7.0, 37° C.
Procedure: as §1

[1] = tested on: E/S products from mature F. hepatica; assay: Specific activity against fluorogenic substrates by E/S products, adult flukes; assay type: biochemical, Fasciola hepatica; settings: E/S products of adult flukes; means of duplicate results
Procedure: (§2) Mature flukes were removed from the bile ducts of bovine livers obtained at an abbattoir. Immature parasites were obtained from the liver of male Wistar rats three and five weeks after infection with 20 metacercariae.
(§3) Newly excysted juvenile (NEJ), 3 week-old, 5 week-old and mature F. hepatica were maintained in vitro over a period of 3 days. The culture medium, removed daily, was then assayed for Cathepsin L-like activity using the fluorogenic substrate Z-phe-arg-AMC. Cathepsin L-like activity was present in the E/S products from all stages examined. Whilst the Cathepsin L-like activity increased on a daily basis in the NEJ E/S products, indicating an increase in its secretion with time, the activity of this proteinase in the EIS of all other stages decreased over the same time period. The proteinase activity in the E/S of each liver fluke stage was compared using three arginine-containing fluorogenic peptide substrates. These substrates were chosen on the basis of their affinity for lysosomal cathepsin enzymes; cathepsin L (Z-phe-arg-AMC), cathepsin B (Z-arg-arg-AMC) and cathepsin H (Z-arg-AMC). Significant activity was only detected using the Z-phe-arg-AMC substrate and similar results were obtained for all liver fluke stages examined (Table 2 below).

[2] = tested on: E/S products from 5 week-old F. hepatica; assay: Specific activity against fluorogenic substrates by E/S products, 5 week-old flukes; assay type: biochemical, Fasciola hepatica; settings: E/S products of 5 week-old flukes; means of duplicate results
Procedure: as §2, §3

[3] = tested on: E/S products from newly excysted juvenile (NEJ) F. hepatica; assay: Specific activity against fluorogenic substrates by E/S products, NEJ; assay type: biochemical, Fasciola hepatica; settings: E/S products of NEJ; means of duplicate results
Procedure: F. hepatica metacercariae (Pfizer strain) encysted on cellophane were removed with a Pasteur pipette into 2% sodium hypochlorite, vortexed and incubated for 30 minutes at 37° C. This procedure removes the outer cyst of the metacercariae. The metacercariae, now only with the inner transparent cyst, were placed into microtitre wells with an automatic pipette using a stereomicroscope and washed in distilled water. They were then incubated in a medium prepared by mixing equal volumes of 0.05M HCl with a solution containing 1% sodium bicarbonate, 0.8% NaCl and 0.2% sodium taurocholate. After 3 hours at 37° C. 70-80% of the flukes were excysted and actively moving. The excysted juveniles were separated from the inner cysts using a 20 μl automatic pipette under a stereomicroscope.
as §3

[4] = tested on: E/S products from 3 week-old F. hepatica; assay: Specific activity against fluorogenic substrates by E/S products, 3 week-old flukes; assay type: biochemical, Fasciola hepatica; settings: E/S products of 3 week-old flukes; means of duplicate results
Procedure: as §2, §3

[5] = tested on: IgG cleaving activity of the E/S products from NEJ flukes; assay: Inhibition of IgG cleaving activity of NEJ E/S products; assay type: biochemical, Fasciola hepatica; settings: final concentration of 50 μM
Procedure: (§4) As IgG is involved in antibody-dependent cellular cytotoxicity against helminth parasites and since adult fluke Cathepsin-L1 cleaves mouse IgG2a [see above], the E/S products from NEJ, 3 week-old, 5 week-old and adult flukes were tested for antibody cleaving activity. E/S products from all F. hepatica stages examined were capable of cleaving the purified IgG at the hinge region of the heavy chain and thereby releasing the Fc portion from the antibody binding regions.

[6] = tested on: IgG cleaving activity of the E/S products from adult flukes; assay: Inhibition of IgG cleaving activity of adult fluke E/S products; assay type: biochemical, Fasciola hepatica; settings: final concentration of 50 μM
Procedure: as §4

NEJ = tested on: NEJ; parameters: species or system Fasciola hepatica; settings: added to NEJ in culture; data not shown
[7] = tested on: antibody-mediated attachment of eosinophils to NEJ; assay: Eosinophil adherence to NEJ in vitro assay; assay type: cell-based, rat
Procedure: Twenty newly excysted juvenile F. hepatica were dispensed into 100 μl of rat eosinophil-rich suspension in microtitre wells. According to the experiment either 100 μl aliquots of immune serum or control serum were added with or without E/S products or purified Cathepsin L1. The cysteine proteinase inhibitor leupeptin was added in some experiments at a final concentration of 5 μg/ml. All dilutions were made in Roswell Park Memorial Institute 1640 with 4% heat inactivated fetal calf serum. At the end of the experiment juvenile flukes were carefully transferred to a microscope slide and examined microscopically at 40× and 100× magnifications. Individual flukes were examined and the number of bound eosinophils counted. Those NEJ with more than 20 cells attached were considered positive.
When rat eosinophil-rich cell populations were added to NEJ in the presence of immune rat serum (IRS obtained from female Wistar rats orally infected with 30 F. hepatica metacercariae; blood was taken after 5 weeks of infection; the sera obtained were pooled, aliquoted and stored at −20° C. until required; control serum was collected from uninfected rats), cell adherence was consistently high (>90% positive NEJ after 2 hours, FIG. 4, panel A; the scale along the base of the Figure represents percentage of positive NEJ as defined above; the 5 bars represent counts at 2 hour intervals). […]

Row | Structure (SMILES) | Kcat (F. hepatica cathepsin L1) | Km (F. hepatica cathepsin L1) | Kcat (F. hepatica cathepsin L2) | Km (F. hepatica cathepsin L2) | Specific activity against fluorogenic substrates, Adults [1] | Specific activity against fluorogenic substrates, 5 weeks [2] | Specific activity against fluorogenic substrates, NEJ [3] | Specific activity against fluorogenic substrates, 3 weeks [4] | inhibition of IgG cleaving activity [5] | inhibition of IgG cleaving activity [6] | viability of NEJ (NEJ) | effect on action of E/S products and Cathepsin L1 on eosinophil attachment ([7]; 5 μg/ml, with immune serum and NEJ or mature fluke E/S products or purified Cathepsin L1) | rate at which eosinophils are lost from the NEJ surface ([7]; in the presence of immune serum, FIG. 4 panel I)
1 | Cc1ccc(S(=O)(=O)NCC(=O)N2CCC[C@H]2C(=O)N[C@@H](CCCNC(=N)N)C(=O)Nc2ccc3c(C)cc(=O)oc3c2)cc1 [Tos-Gly-Pro-Arg-AMC] (Tos-Gly-Pro-Arg-{AMC}) | 0.03 s⁻¹ | 26 µM | 1.93 s⁻¹ | 17.1 µM |  |  |  |  |  |  |  |  | 
2 | Cc1cc(=O)oc2cc(NC(=O)[C@H](CCCN=C(N)N)NC(=O)[C@H](CCCN=C(N)N)NC(=O)OCc3ccccc3)ccc12 [Z-Arg-Arg-AMC] (Cbz-Arg-Arg-{AMC}) | 0.002 s⁻¹ | 65.6 µM | 0.02 s⁻¹ | 9.07 µM | 21 μmol AMC/min/Mg | 2 μmol AMC/min/Mg | 0 μmol AMC/min/Mg | 0 μmol AMC/min/Mg |  |  |  |  | 
3 | Cc1cc(=O)oc2cc(NC(=O)[C@H](CCCCN)NC(=O)[C@H](CC(C)C)NC(=O)[C@@H](NC(=O)OC(C)(C)C)C(C)C)ccc12 [Boc-Val-Leu-Lys-AMC] (Boc-Val-Leu-Lys-{AMC}) | 7.90 s⁻¹ | 34.7 µM | 3.75 s⁻¹ | 7.34 µM |  |  |  |  |  |  |  |  | 
4 | Cc1cc(=O)oc2cc(NC(=O)[C@H](CCCN=C(N)N)NC(=O)OCc3ccccc3)ccc12 [Z-Arg-AMC] | 0.04 s⁻¹ | 20.4 µM | 0.09 s⁻¹ | 14.1 µM | 63 μmol AMC/min/Mg | 5 μmol AMC/min/Mg | 1 μmol AMC/min/Mg | 3 μmol AMC/min/Mg |  |  |  |  | 
5 | Cc1ccc(S(=O)(=O)NCC(=O)N2CCC[C@H]2C(=O)N[C@@H](CCCCN)C(=O)Nc2ccc3c(C)cc(=O)oc3c2)cc1 [Tos-Gly-Pro-Lys-AMC] (Tos-Gly-Pro-Lys-{AMC}) | 0.03 s⁻¹ | 107 µM | 1.37 s⁻¹ | 35.5 µM |  |  |  |  |  |  |  |  | 
6 | C[C@H](NC(=O)[C@H](Cc1ccccc1)NC(=O)OCc1ccccc1)C(=O)C=[N+]=[N-] [Z-phe-ala-CHN2] |  |  |  |  |  |  |  |  | completely inhibited | completely inhibited |  |  | 
7 | Cc1cc(=O)oc2cc(NC(=O)[C@H](CCCN=C(N)N)NC(=O)[C@@H](NC(=O)[C@H](Cc3ccccc3)NC(=O)c3ccccc3)C(C)C)ccc12 [Bz-Phe-Val-Arg-AMC] (Bz-Phe-Val-Arg-{AMC}) | 0.03 s⁻¹ | 9.25 µM | 0.06 s⁻¹ | 1.2 µM |  |  |  |  |  |  |  |  | 
8 | Cc1cc(=O)oc2cc(NC(=O)[C@H](Cc3ccc(O)cc3)NC(=O)[C@@H](NC(=O)[C@H](CC(C)C)NC(=O)[C@H](CC(C)C)NC(=O)CCC(=O)O)C(C)C)ccc12 [Suc-Leu-Leu-Val-Tyr-AMC] (Suc-LLVY-{AMC}) | 0.01 s⁻¹ | 38.5 µM | 0.08 s⁻¹ | 23.3 µM |  |  |  |  |  |  |  |  | 
9 | Cc1cc(=O)oc2cc(NC(=O)[C@H](CCCCN)NC(=O)[C@H](Cc3ccccc3)NC(=O)[C@H](C)NC(=O)CCC(=O)O)ccc12 [Suc-Ala-Phe-Lys-AMC] (Suc-Ala-Phe-Lys-{AMC}) | 0.05 s⁻¹ | 65.3 µM | 0.14 s⁻¹ | 41.1 µM |  |  |  |  |  |  |  |  | 
10 | Cc1cc(=O)oc2cc(NC(=O)[C@H](CCCN=C(N)N)NC(=O)[C@@H]3CCCN3C(=O)[C@@H](NC(=O)OC(C)(C)C)C(C)C)ccc12 [Boc-Val-Pro-Arg-AMC] (Boc-Val-Pro-Arg-{AMC}) | 0.02 s⁻¹ | 43.6 µM | 1.19 s⁻¹ | 24.8 µM |  |  |  |  |  |  |  |  | 
11 | Cc1cc(=O)oc2cc(NC(=O)[C@H](Cc3ccc(O)cc3)NC(=O)[C@@H](NC(=O)[C@@H](N)CC(C)C)C(C)C)ccc12 [H-Leu-Val-Tyr-AMC] (H-Leu-Val-Tyr-{AMC}) | 0.02 s⁻¹ | 5.4 µM | 0.21 s⁻¹ | 3.75 µM |  |  |  |  |  |  |  |  | 
12 | CC(=O)N[C@@H](CC(C)C)C(=O)N[C@@H](CC(C)C)C(=O)N[C@H](C=O)CCCNC(=N)N [leupeptin] |  |  |  |  |  |  |  |  |  |  | did not affect their viability | inhibits the effect of the E/S products and Cathepsin L1 | slightly reduces
13 | Cc1cc(=O)oc2cc(NC(=O)[C@H](CCCNC(=N)N)NC(=O)[C@H](Cc3ccccc3)NC(=O)OCc3ccccc3)ccc12 [Z-Phe-Arg-AMC, benzyloxycarbonyl-L-phenylalanyl-L-arginyl-7-amido-4-methyl coumarin] (Cbz-Phe-Arg-{AMC}) | 1.08 s⁻¹ | 14.7 µM | 0.56 s⁻¹ | 3.76 µM | 1254 μmol AMC/min/Mg | 90 μmol AMC/min/Mg | 25 μmol AMC/min/Mg | 29 μmol AMC/min/Mg |  |  |  |  | 
